Values quoted from earlier work, collected in patent publication EP4407007A1, “ECO-FRIENDLY INK FORMULATION, PARTICULARLY FOR BALLPOINT PENS AND ASSOCIATED BALLPOINT PEN CARTRIDGE” (Reinol S.r.l., priority 2023, dated 2024).

Legend:
Fish = details: hazard category
[1] = hazard category
[2] = hazard category; remark: listed apart in the source

SMILES	Aquatic toxicity Fish (Fish)	Acute toxicity Oral inhalation [1]	Skin irritation [2]
CC1(C)OCC(CO)O1 (racemic) [2,2-dimethyl-1,3-dioxolane-4-yl-methanol]	Unclassified	Unclassified	Unclassified
OCc1ccccc1 [benzyl alcohol]	Category 2	Category 4	Category 2
